# Target: T1, human bradykinin B2 receptor (hB2R) (Homo sapiens, UniProt P30411)
# T1 sequence (P30411 1-391): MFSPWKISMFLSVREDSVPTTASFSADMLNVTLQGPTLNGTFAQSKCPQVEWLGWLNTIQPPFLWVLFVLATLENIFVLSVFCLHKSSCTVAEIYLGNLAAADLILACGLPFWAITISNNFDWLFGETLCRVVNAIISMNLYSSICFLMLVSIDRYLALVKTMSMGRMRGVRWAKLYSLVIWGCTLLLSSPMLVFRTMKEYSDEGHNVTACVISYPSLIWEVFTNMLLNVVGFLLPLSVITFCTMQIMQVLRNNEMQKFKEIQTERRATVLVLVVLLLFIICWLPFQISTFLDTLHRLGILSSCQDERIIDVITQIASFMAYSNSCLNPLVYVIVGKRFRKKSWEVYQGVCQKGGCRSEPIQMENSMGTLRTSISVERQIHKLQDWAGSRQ
# Assay: cell-based human bradykinin B2 receptor calcium mobilization (hB2R-CaM) assay
# Conditions: HTS041C cells, bradykinin at EC80, calcium mobilization; read-out: IC50-value towards human bradykinin B2 receptor (hB2R)
# Method in brief: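 HTS041C cells stably expressing hB2R were serum-reduced, loaded with Calcium 6 dye and pre-incubated with compound (8-point, n=2, 0.1% DMSO) for 25 min at 37° C. Bradykinin was then added at EC80. IC50 came from a 4-parameter logistic fit of the max-min fluorescence signal (485/525 nm).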
row,SMILES,IC50 [nM]
1,[2H][C@@](C)(NC(=O)C(C)(F)F)c1cc(F)cc(Cl)c1COc1cccc2c(-c3ncnn3C)cc(C)nc12 [Compound 182],≤ 50
2,Cc1cc(-n2cc(F)cn2)c2cccc(OCc3c(Cl)cc(F)cc3[C@H](C)NC(=O)C(CO)CO)c2n1 [Compound 71],≤ 50
3,Cc1cc(-n2cc(F)cn2)c2cccc(OCc3c(Cl)cc(F)cc3[C@H](C)N(C)C(=O)[C@H](C)Cl)c2n1 [Compound 103],51 to 250
4,CC[C@H](NC(=O)c1coc(C)n1)c1cc(F)cc(Cl)c1COc1cccc2c(-n3cc(F)cn3)cc(C)nc12 [Compound 152],51 to 250
5,Cc1cc(-n2cc(F)cn2)c2cccc(OCc3c(Cl)cc(F)cc3[C@H](C)NC(=O)c3c(C)noc3C)c2n1 [Compound 87],51 to 250
6,CCC[C@H](O)C(=O)N[C@@H](C)c1cc(F)cc(Cl)c1COc1cccc2c(-n3cc(F)cn3)cc(C)nc12 [Compound 50],51 to 250
7,Cc1cc(-c2ccnn2C)c2cccc(OCc3c(Cl)cc(F)cc3[C@H](C)NC(=O)[C@@H](C)O)c2n1 [Compound 192],≤ 50
8,Cc1cc(-c2ncc(C#N)n2C)c2cccc(OCc3c(Cl)cc(F)cc3[C@H](C)NC(=O)CC(F)(F)F)c2n1 [Compound 206],≤ 50
9,Cc1cc(-n2cc(F)cn2)c2cccc(OCc3c(Cl)cc(F)cc3[C@H](C)NC(=O)C3COC3)c2n1 [Compound 57],≤ 50
10,Cc1cc(-n2cc(F)cn2)c2cccc(OCc3c(Cl)cc(F)cc3[C@H](C)NC(=O)c3cccnc3)c2n1 [Compound 124],≤ 50
11,CCc1ncnn1-c1cc(C)nc2c(OCc3c(Cl)cc(F)cc3[C@H](C)NC(=O)COC(F)F)cccc12 [Compound 169],≤ 50
12,Cc1cc(-n2cc(F)cn2)c2cccc(OCc3c(Cl)cc(F)cc3[C@H](C)NC(=O)[C@H]3CCOC3)c2n1 [Compound 15],≤ 50
13,CC(=O)C(=O)N[C@@H](C)c1cc(F)cc(Cl)c1COc1cccc2c(-n3cc(F)cn3)cc(C)nc12 [Compound 55],251 to 1000
14,"[2H][C@@](CO)(NC(=O)COC(F)F)c1cc(F)cc(Cl)c1COc1cccc2c(-c3ncnn3C)cc(C)nc12 [Compound 11B, (R)—N-(1-Deutero-1-(3-chloro-5-fluoro-2-((2-methyl-4-(1-methyl-1H-1,2,4-triazol-5-yl)quinolin-8-yloxy)methyl)phenyl)-2-hydroxyethyl)-2-(difluoromethoxy)acetamide]",≤ 50
15,Cc1cc(-c2ccnn2C)c2cccc(OCc3c(Cl)cc(F)cc3[C@H](C)NC(=O)c3cnco3)c2n1 [Compound 196],≤ 50
16,Cc1cc(-c2ncnn2C)c2cccc(OCc3c(Cl)cc(F)cc3[C@H](C)NC(=O)[C@@H](C)F)c2n1 [Compound 204],≤ 50
17,"Cc1cc(-n2cc(F)cn2)c2cccc(OCc3c(Cl)cc(F)cc3[C@H](C)NC(=O)[C@H](O)CN)c2n1 [Compound 3, (R)-3-amino-N—((S)-1-(3-chloro-5-fluoro-2-((4-(4-fluoro-1H-pyrazol-1-yl)-2-methylquinolin-8-yloxy)methyl)phenyl)ethyl)-2-hydroxypropanamide]",251 to 1000
18,Cc1cc(-n2cc(F)cn2)c2cccc(OCc3c(Cl)cc(F)cc3[C@H](C)NC(=O)c3ccccn3)c2n1 [Compound 123],51 to 250
19,CC[C@H](NC(=O)c1coc(C)n1)c1cc(F)cc(Cl)c1COc1cccc2c(-c3ncnn3C)cc(C)nc12 [Compound 149],≤ 50

row,SMILES,IC50 [nM]
1,Cc1cc(-n2nccn2)c2cccc(OCc3c(Cl)cc(F)cc3[C@H](C)NC(=O)[C@@H](C)O)c2n1 [Compound 31],51 to 250
2,Cc1cc(-n2cc(F)cn2)c2cccc(OCc3c(Cl)cc(F)cc3[C@H](C)NC(=O)C3CCC(C)(C)O3)c2n1 (stereo partly drawn) [Compound 109],51 to 250
3,Cc1cc(-n2cc(F)cn2)c2cccc(OCc3c(Cl)cc(F)cc3[C@H](C)NC(=O)C[C@@H](C)O)c2n1 [Compound 26],≤ 50
4,CCc1ncnn1-c1cc(C)nc2c(OCc3c(Cl)cc(F)cc3[C@H](C)NC(=O)C(C)F)cccc12 (stereo partly drawn) [Compound 172],≤ 50
5,Cc1cc(-n2cc(F)cn2)c2cccc(OCc3c(Cl)cc(F)cc3[C@H](CO)NC(=O)COC(F)F)c2n1 [Compound 106],≤ 50
6,Cc1cc(-n2ncnc2C)c2cccc(OCc3c(Cl)cc(F)cc3[C@H](C)NC(=O)C(F)F)c2n1 [Compound 174],≤ 50
7,CCc1ncnn1-c1cc(C)nc2c(OCc3c(Cl)cc(F)cc3[C@H](C)NC(=O)C(C)(C)O)cccc12 [Compound 171],≤ 50
8,Cc1cc(-n2cc(F)cn2)c2cccc(OCc3c(Cl)cc(F)cc3[C@H](C)NC(=O)C3CN(C)C3)c2n1 [Compound 65],251 to 1000
9,COCC(=O)N[C@@H](C)c1cc(F)cc(Cl)c1COc1cccc2c(-n3cc(F)cn3)cc(C)nc12 [Compound 12],≤ 50
10,Cc1cc(-n2cc(F)cn2)c2cccc(OCc3c(Cl)cc(F)cc3[C@H](C)NC(=O)C3(C)CCCO3)c2n1 (stereo partly drawn) [Compound 110],≤ 50
11,Cc1cc(-n2cc(F)cn2)c2cccc(OCc3c(Cl)cc(F)cc3[C@H](C)NC(=O)C3CCO3)c2n1 (stereo partly drawn) [Compound 56],≤ 50
12,CC[C@H](NC(=O)c1cocn1)c1cc(F)cc(Cl)c1COc1cccc2c(-n3ncnc3C)cc(C)nc12 [Compound 165],≤ 50
13,Cc1cc(-n2nc(C)nc2C)c2cccc(OCc3c(Cl)cc(F)cc3[C@H](C)NC(=O)c3coc(C)n3)c2n1 [Compound 137],51 to 250
14,[2H][C@@](C)(NC(=O)CC(F)(F)F)c1cc(F)cc(Cl)c1COc1cccc2c(-n3ncnc3C)cc(C)nc12 [Compound 208],≤ 50
15,[2H][C@@](C)(NC(=O)C(F)F)c1cc(F)cc(Cl)c1COc1cccc2c(-c3ncnn3C)cc(C)nc12 [Compound 183],≤ 50
16,Cc1cc(-n2ncnc2C)c2cccc(OCc3c(Cl)cc(F)cc3[C@H](C)NC(=O)c3cc(C)on3)c2n1 [Compound 158],≤ 50
17,Cc1cc(-n2cc(F)cn2)c2cccc(OCc3c(Cl)cc(F)cc3[C@H](C)NC(=O)C(C)(C)C(F)(F)F)c2n1 [Compound 48],51 to 250
18,[2H]C([2H])([2H])[C@H](NC(=O)c1cocn1)c1cc(F)cc(Cl)c1COc1cccc2c(-c3ncnn3C)cc(C)nc12 [Compound 200],≤ 50
19,Cc1cc(-n2cc(F)cn2)c2cccc(OCc3c(Cl)cc(F)cc3[C@H](C)NC(=O)[C@H](O)C(C)C)c2n1 [Compound 67],51 to 250

row,SMILES,IC50 [nM]
1,Cc1cc(-c2ncnn2C)c2cccc(OCc3c(Cl)cc(F)cc3[C@H](C)NC(=O)CC(F)(F)F)c2n1 [Compound 177],≤ 50
2,[2H]C([2H])([2H])[C@]([2H])(NC(=O)c1cocn1)c1cc(F)cc(Cl)c1COc1cccc2c(-c3ncnn3C)cc(C)nc12 [Compound 201],≤ 50
3,Cc1cc(-n2cc(F)cn2)c2cccc(OCc3c(Cl)cc(F)cc3[C@H](C)NC(=O)C(C)(C)CO)c2n1 [Compound 60],≤ 50
4,Cc1cc(-c2ccnn2C)c2cccc(OCc3c(Cl)cc(F)cc3[C@H](C)NC(=O)[C@H](C)O)c2n1 [Compound 195],≤ 50
5,Cc1cc(-n2cc(F)cn2)c2cccc(OCc3c(Cl)cc(F)cc3[C@H](C)NC(=O)[C@@H]3COC(=O)N3)c2n1 [Compound 111],51 to 250
6,Cc1cc(-n2ncnc2C)c2cccc(OCc3c(Cl)cc(F)cc3[C@H](C)NC(=O)C(C)(F)F)c2n1 [Compound 180],≤ 50
7,Cc1cc(-c2ccnn2C)c2cccc(OCc3c(Cl)cc(F)cc3[C@H](C)NC(=O)COC(F)F)c2n1 [Compound 175],≤ 50
8,CCn1ncnc1-c1cc(C)nc2c(OCc3c(Cl)cc(F)cc3[C@H](C)NC(=O)c3coc(C)n3)cccc12 [Compound 142],≤ 50
9,Cc1cc(-n2cc(F)cn2)c2cccc(OCc3c(Cl)cc(F)cc3[C@H](C)NC(=O)C(C)C(F)(F)F)c2n1 (stereo partly drawn) [Compound 54],51 to 250
10,"Cc1cc(-n2cnc(C)n2)c2cccc(OCc3c(Cl)cc(F)cc3[C@H](C)NC(=O)COC(F)F)c2n1 [Compound 10, (S)—N-(1-(3-chloro-5-fluoro-2-((2-methyl-4-(3-methyl-1H-1,2,4-triazol-1-yl)quinolin-8-yloxy)methyl)phenyl)ethyl)-2-(difluoromethoxy)acetamide]",51 to 250
11,Cc1cc(-n2nccn2)c2cccc(OCc3c(Cl)cc(F)cc3[C@H](C)NC(=O)[C@H](C)O)c2n1 [Compound 32],51 to 250
12,Cc1cc(-n2cc(F)cn2)c2cccc(OCc3c(Cl)cc(F)cc3[C@H](C)NC(=O)c3cnoc3C)c2n1 [Compound 89],51 to 250
13,CC[C@H](NC(=O)c1cocn1)c1cc(F)cc(Cl)c1COc1cccc2c(-c3ncnn3C)cc(C)nc12 [Compound 155],≤ 50
14,Cc1cc(-c2ccnn2C)c2cccc(OCc3c(Cl)cc(F)cc3[C@H](C)NC(=O)C(F)F)c2n1 [Compound 176],≤ 50
15,COCCC(=O)N[C@@H](CO)c1cc(F)cc(Cl)c1COc1cccc2c(-n3cc(F)cn3)cc(C)nc12 [Compound 107],≤ 50
16,Cc1cc(-c2ncnn2C)c2cccc(OCc3c(Cl)cc(F)cc3[C@H](C)NC(=O)C3(C)CCCO3)c2n1 (stereo partly drawn) [Compound 119],51 to 250
17,COC(=O)[C@@H](O)CC(=O)N[C@@H](C)c1cc(F)cc(Cl)c1COc1cccc2c(-n3cc(F)cn3)cc(C)nc12 [Compound 70],≤ 50
18,Cc1cc(-c2ncnn2C)c2cccc(OCc3c(Cl)cc(F)cc3[C@H](C)NC(=O)c3cocn3)c2n1 [Compound 128],≤ 50
19,Cc1cc(-c2ncnn2C)c2cccc(OCc3c(Cl)cc(F)cc3[C@H](C)NC(=O)C3CCCCC3)c2n1 [Compound 144],≤ 50

# From patent publication US11820756B2, “Bradykinin B2 receptor antagonists” (Pharvaris Netherlands B.V., priority 2017, dated 2023)
